According to ChEMBL document CHEMBL5230107, “Anticancer boron-containing prodrugs responsive to oxidative stress from the tumor microenvironment” (Eur J Med Chem, 2020):

Columns and labels:
U-937 = experiment: Antiproliferative activity against human U-937 cells assessed as reduction in cell viability; format: functional
MV4-11 = experiment: Antiproliferative activity against human MV4-11 cells assessed as reduction in cell viability; format: functional
4T1 [1] = experiment: Cytotoxicity against mouse 4T1 cells assessed as reduction in cell viability; format: functional, cell-based
NIH3T3 [2] = experiment: Cytotoxicity against mouse NIH3T3 cells assessed as reduction in cell viability; format: functional, cell-based
4T1 [3] = experiment: Antitumor activity against mouse 4T1 cells implanted in mouse assessed as reduction in tumor volume at 37 mg/kg, iv; format: functional; parameters: scale not given: the % may be the effect or the level left
MCF7 [4] = experiment: Antitumor activity against human MCF7 cells xenografted in mouse assessed as tumor regression at 5 mg/kg, po; format: functional
SR = experiment: Antiproliferative activity against human SR cells assessed as growth inhibition at 10 uM relative to control; format: functional; parameters: scale not given: the % may be the effect or the level left
NCI-H460 = experiment: Antiproliferative activity against human NCI-H460 cells assessed as growth inhibition at 10 uM relative to control; format: functional; parameters: scale not given: the % may be the effect or the level left
DU-145 [5] = experiment: Antiproliferative activity against human DU-145 cells assessed as reduction in cell viability; format: functional, cell-based
NIH3T3 [6] = experiment: Antiproliferative activity against mouse NIH3T3 cells assessed as reduction in cell viability; format: functional, cell-based
DU-145 [7] = experiment: Antitumor activity against human DU-145 cells implanted in mouse assessed as reduction in tumor volume at 2 mg/kg, po; format: functional; parameters: scale not given: the % may be the effect or the level left
[8] = tested on: Panel NCI-60 (60 carcinoma cell lines); experiment: Cytotoxicity against human Panel NCI-60 (60 carcinoma cell lines); format: functional, cell-based
HL-60 = experiment: Cytotoxicity against human HL-60 cells assessed as inhibition of cell growth; format: functional, cell-based
A549 = experiment: Cytotoxicity against human A549 cells assessed as reduction in cell viability by Almar Blue stained fluorescence-based assay; format: functional
HeLa [9] = experiment: Cytotoxicity against human HeLa cells assessed as reduction in cell viability by Almar Blue stained fluorescence-based assay; format: functional
MDA-MB-231 = experiment: Cytotoxicity against human MDA-MB-231 cells assessed as reduction in cell viability by Almar Blue stained fluorescence-based assay; format: functional
NCI-H1993 = experiment: Cytotoxicity against human NCI-H1993 cells assessed as inhibition of cell growth; format: functional, cell-based
B16-F10 [10] = experiment: Antiproliferative activity against mouse B16-F10 cells assessed as reduction in cell viability at 100 uM; format: functional
HeLa [11] = experiment: Antiproliferative activity against human HeLa cells assessed as reduction in cell viability at 100 uM; format: functional
B16-F10 [12] = experiment: Antitumor activity against mouse B16-F10 cells implanted in mouse assessed as increase in survival time at 0.25 mg/kg, po; format: functional
HeLa [13] = experiment: Cytotoxicity against human HeLa cells assessed as inhibition of cell growth; format: functional, cell-based
[14] = Antiproliferative activity against human U-87 MG cells assessed as reduction in cell viability; format: functional, cell-based, U-87MG ATCC
MIA PaCa-2 = experiment: Cytotoxicity against human MIA PaCa-2 cells assessed as inhibition of cell growth measured after 72 hrs by MTS assay; format: functional, cell-based; conditions: MIA PaCa-2, 72 h
PSN1 = experiment: Antiproliferative activity against human PSN1 cells assessed as reduction in cell viability measured for 72 hrs by CCK-8 assay; format: functional, cell-based; conditions: PSN1, 72 h
BXPC-3 = experiment: Antiproliferative activity against human BXPC-3 cells assessed as reduction in cell viability measured for 72 hrs by CCK-8 assay; format: functional, cell-based; conditions: BXPC-3, 72 h
[15] = Antiproliferative activity against human Nasopharyngeal carcinoma cell line assessed as reduction in cell viability measured for 72 hrs by CCK-8 assay; format: functional, cell-based
MCF7 [16] = experiment: Antitumor activity against human MCF7 cells xenografted in BALB/c nude mouse assessed as tumor growth inhibition at 10 mg/kg, iv; format: functional; conditions: read-out: TGI
[17] = Cytotoxicity against human MRC5 cells assessed as reduction in cell viability by Almar Blue stained fluorescence-based assay; format: toxicity

O=C(CCCCCCC(=O)Nc1ccccc1)NOCc1ccc(B(O)O)cc1
Activity (U-937): 20% | Activity (MV4-11): 20%

CCN(CC)C(=S)SCc1ccc(B2OC(C)(C)C(C)(C)O2)cc1
IC50 (4T1 [1]): 1000 nM | IC50 (NIH3T3 [2]): 6000 nM | Activity (4T1 [3]): 80%

COc1cccc2c1C(=O)c1c(O)c3c(c(O)c1C2=O)C[C@@](O)(C(=O)CO)C[C@@H]3O[C@H]1C[C@H](NC(=O)OCc2ccc(B3OC(C)(C)C(C)(C)O3)cc2)[C@H](O)[C@H](C)O1
Activity (MCF7 [4]): 30%

CC1(C)OB(c2ccc(C[N+](C)(CCCl)CCCl)cc2)OC1(C)C.[Br-]
Activity (SR): 85% | Activity (NCI-H460): 85%

CC1(COC(=O)OCc2ccc(B3OCCCO3)cc2)COC(/C=C/c2ccccc2)OC1 (centres undefined)
IC50 (DU-145 [5]): 48000 nM | IC50 (NIH3T3 [6]): 182000 nM | Activity (DU-145 [7]): 75%

COc1cc(CBr)c(B2OC(C)(C)C(C)(C)O2)c(CBr)c1
IC50 [8]: 10000 nM

CN(Cc1cnc2nc(N)nc(NC(=O)OCc3ccc(B(O)O)cc3)c2n1)c1ccc(C(=O)N[C@H](CCC(=O)O)C(=O)O)cc1
IC50 (HL-60): 50 nM

CCN(CC)/[N+]([O-])=N/OCc1cc2ccc(B3OC(C)(C)C(C)(C)O3)cc2oc1=O
IC50 (A549): 10000 nM | IC50 (HeLa [9]): 10000 nM | IC50 (MDA-MB-231): 10000 nM

C[C@@H](Oc1cc(-c2cnn(C3CCNCC3)c2)cnc1NC(=O)OCc1ccc(B(O)O)cc1)c1c(Cl)ccc(F)c1Cl
IC50 (NCI-H1993): 3000 nM

CC[C@@]1(O)C(=O)OCc2c1cc1n(c2=O)Cc2cc3cc(OC(=O)OCc4cc5ccc(B(O)O)cc5oc4=O)ccc3nc2-1
Activity (B16-F10 [10]): 60% | Activity (HeLa [11]): 60% | Time (B16-F10 [12]): 1 days

COc1cccc2c1C(=O)c1c(O)c3c(c(O)c1C2=O)C[C@@](O)(C(=O)CO)C[C@@H]3O[C@H]1C[C@H](NCC(=O)OCc2cc(C)cc(COC(=O)c3ccc(C(=C(c4ccccc4)c4ccccc4)c4ccccc4)cc3)c2OCc2ccc(B3OC(C)(C)C(C)(C)O3)cc2)[C@H](O)[C@H](C)O1
IC50 (HeLa [13]): 2000 nM

CC[C@@]1(O)C(=O)OCc2c1cc1n(c2=O)Cc2cc3ccccc3nc2-1 [CAMPTOTHECIN]
IC50 [14]: 250 nM

C[C@@H](Oc1cc(-c2cnn(C3CCNCC3)c2)cnc1N)c1c(Cl)ccc(F)c1Cl [CRIZOTINIB]
IC50 (NCI-H1993; Homo sapiens, NCI-H1993, read-out: IC50): 3000 nM

COc1cccc2c1C(=O)c1c(O)c3c(c(O)c1C2=O)C[C@@](O)(C(=O)CO)C[C@@H]3O[C@H]1C[C@H](N)[C@H](O)[C@H](C)O1 [DOXORUBICIN]
IC50 (MIA PaCa-2): 200 nM | Activity (MCF7 [4]): 50%

Nc1ccn([C@@H]2O[C@H](CO)[C@@H](O)C2(F)F)c(=O)n1 [GEMCITABINE]
IC50 (PSN1): 5 nM | IC50 (BXPC-3): 5 nM | IC50 [15]: 5 nM

CC[C@@]1(O)C(=O)OCc2c1cc1n(c2=O)Cc2cc3cc(O)ccc3nc2-1 [HYDROXYCAMPTOTHECIN]
Activity (B16-F10 [10]): 60% | Activity (HeLa [11]): 60%

CC(=O)O[C@H]1C(=O)[C@@]2(C)[C@H]([C@H](OC(=O)c3ccccc3)[C@]3(O)C[C@H](OC(=O)[C@H](O)[C@@H](NC(=O)c4ccccc4)c4ccccc4)C(C)=C1C3(C)C)[C@]1(OC(C)=O)CO[C@@H]1C[C@@H]2O [PACLITAXEL]
inhibition in vivo at 10 mg/kg (MCF7 [16]): 60% | IC50 [17]: 25000 nM

O=C(CCCCCCC(=O)Nc1ccccc1)NO [VORINOSTAT]
Activity (U-937): 20% | Activity (MV4-11): 20%
